Molecules are shown by their SMILES.

Broadly, the IC50 is the concentration that inhibits the measured activity by half. Low values mean higher potency, high ones lower potency.

For one data set, the target named is T1, human PRS (Homo sapiens, UniProt P07814).
T1 construct: His-Avi-tag (N); made in house; host or cells: E. coli BL21 (DE3)
T1 sequence (P07814 998-1512): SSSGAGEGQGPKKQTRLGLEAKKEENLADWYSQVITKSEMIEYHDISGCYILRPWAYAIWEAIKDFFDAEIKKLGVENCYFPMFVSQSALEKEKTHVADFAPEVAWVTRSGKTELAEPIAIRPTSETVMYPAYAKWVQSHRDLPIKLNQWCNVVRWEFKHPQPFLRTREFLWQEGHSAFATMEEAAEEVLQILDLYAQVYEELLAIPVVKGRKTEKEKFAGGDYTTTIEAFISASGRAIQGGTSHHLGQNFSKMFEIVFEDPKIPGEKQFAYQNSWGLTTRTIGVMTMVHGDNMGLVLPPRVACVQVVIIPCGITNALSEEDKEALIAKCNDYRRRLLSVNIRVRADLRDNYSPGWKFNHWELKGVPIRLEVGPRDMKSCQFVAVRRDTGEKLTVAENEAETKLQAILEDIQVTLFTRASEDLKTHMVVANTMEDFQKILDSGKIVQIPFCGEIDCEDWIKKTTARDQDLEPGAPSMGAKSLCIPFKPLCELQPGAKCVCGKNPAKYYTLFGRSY
The data set can be described thus: ATP/PPi exchange assay (PRS enzymatic inhibition). Conditions: ATP/PPi exchange method; duplicate. The class given is biochemical. How it is done: The expression plasmid of human PRS (residues 998–1512, Genbank Accession No. NM_152621) was constructed in a pET21a vector (Novagen, San Diego, CA, USA) to express in E.coli BL21 (DE3) (Nippongene, Tokyo, Japan) as a fusion protein with His-Avi-tag at N-terminus. After culture, the cells were homogenized in a lysis buffer containing 50 mM Tris-HCl (pH 8.0 at 25°C), 150 mM NaCl, 5 U/mL Benzonase, 20 mM imidazole, and 1 mM DTT. Cell homogenates were centrifuged, and the supernatant was applied to NiNTA purification, followed by gel filtration with Superdex200. Proteins were stored in a buffer containing 50 mM Tris-HCl (pH 8.0 at 25°C), 150 mM NaCl, 10% glycerol, and 1 mM DTT at -80°C. The protein concentration was determined with the BCA Protein Assay Kit (Pierce Biotechnology, Inc., Rockford, IL, USA) according to the instruction manual.
The test compounds were dissolved in 5 μL of an assay buffer [50 mM Tris-HCl (pH 7.5), 20 mM KCl, 1 mM DTT, and 0.01% Tween 20] and incubated with 5 μL of 40 nM PRS enzyme dissolved in the assay buffer supplemented with 40 mM MgCl2 for 60 minutes. […] Radioactivities were measured using the TopCount detector (PerkinElmer).
The inhibitory activity was calculated as follows: % inhibition = (A—B) / (A—C) × 100, where, A, B, and C are signals with vehicle, test sample, and without reaction, respectively. […]

In data set [1] the test system is TGF-β-treated human skin fibroblast. In words: α-SMA and pro-COL1A1 protein ELISA in TGF-β-treated skin fibroblasts (Protocol 1). The class given is cell-based. Conditions: TGF-β 1 ng/mL, 24 h; for pro-COL1A1 protein expression / α-SMA protein expression: 1-300 nM, 0.5 h pre-treatment, ELISA. The procedure: Primary human skin fibroblasts (NHDF-Ad) were obtained from Lonza (Basel, Switzerland). Cells were cultured and maintained in growth medium: Fibroblast Basal Medium (FBM) containing human fibroblast growth factor-B, insulin, fetal bovine serum (FBS) and gentamicin/amphotericin-B (Lonza). Cells were maintained in a humidified incubator at 37°C with 5% CO2 and used for experiments between passages 5 to 8.
Protocol 1: Cells were allowed to adhere overnight before being replaced with serum-free FBM for 24 h. Serum-starved cells were first pretreated with samples in DMSO at concentrations between 1 and 300 nM for 30 min and then stimulated with 1 ng/mL recombinant human TGF-β (R&D Systems, Minneapolis, MN, USA) for 24 h.
Cell lysates were prepared with cell lysis buffer (Cell Signaling Technology, Beverly, MA, USA) and subjected to α-SMA ELISA system (Abnova, Taipei, Taiwan) and Pro-type I Collagen α1 (pro-COL1A1) SimpleStep ELISA Kit (Abcam, Cambridge, UK, USA) according to the manufacturer's protocol.
On the technique in general: An ELISA detects its analyte on a solid surface through an enzyme-linked reagent.

The nature of data set [2]: body weight and tolerability on topical application in mice. The note with it: mouse; for tolerability: dermal topical application; for Body weight day 0 / Body weight day 7: topical, mean ± SE (n = 4-8).
Description: The experimenters were blinded to the treatments given to the animals and to the biochemical and histological analyses and the data analyses. Eight-week-old C3H/He male mice (weighing 23~28 g, Japan SLC, Inc., Hamamatsu, Japan) were used for all the in vivo experiments. […] These animals were maintained on a 12/12 h light/dark cycle with constant temperature (23 ± 2°C) under specific pathogen-free conditions. Standard chow diet and water were available ad libitum.
After acclimatization for 1 weeks, animals were randomly divided according to body weight and treated for 3 to 5 consecutive days as follows. The ear and dorsal skin of mouse were intradermally injected with 20 μL (100 μL, dorsal skin) PBS or 500 ng TGF-β in PBS under anaesthesia with 3–4% sevoflurane. Injections were continued in this manner daily for 3 days (days 0, 1 and 2) or 5 days (days 0, 1, 2, 3 and 4). Treatment protocol included the daily topical application of T-3833261 or HF cream on the ear (40 μL/ear) 1 h before injections into the ear. A vehicle without compounds was applied to control mice. The topical material contained sorbitan sesquioleate (50 g), lanolin (50 g), liquid paraffin (250 g), propylene glycol (50 g), 90% lactic acid (1.5 g), T-3833261 (0.1, 0.3 and 1 g) or HF (0.1 g), and distilled water as the rest material. Topical application of compound was continued for 7 days. Mice were euthanized by cervical dislocation under sevoflurane anesthesia at 3 or 5 days after last TGF-β injection and the ear surrounding the TGF-β injection site was harvested with 8 μm biopsy punch under anesthesia.

As to `O=C(CC1NCCCC1O)Cn1cnc2cc(Br)c(Cl)cc2c1=O` (centres unmarked) [HF, Halofuginone, reference compound], the half-maximal inhibitory concentration (IC50) on human PRS amounted to 8.7 nM. In data set [1], the pro-COL1A1 protein expression result is reported as “suppressed pro-COL1A1 protein expression in a dose-dependent manner”; the α-SMA protein expression entry is reported as “suppressed α-SMA protein expression in a dose-dependent manner”; the “concentration reducing α-SMA and pro-COL1A1 proteins below the basal level of non-stimulated cells” value is recorded as ≥ 100 nM. Further, the tolerability result in data set [2] is reported as “well-tolerated”.

`Cn1cc(-c2cc(F)cc(CNC(=O)c3nccc4nc(C5CCCC5)[nH]c34)c2)cn1` [T-3833261, 2-Cyclopentyl-N-(3-fluoro-5-(1-methyl-1H-pyrazol-4-yl)benzyl)-3H-imidazo[4,5-c]pyridine-4-carboxamide] displayed an IC50 on human PRS of 3.6 nM. Also, in data set [1], the pro-COL1A1 protein expression result is on record as “suppressed pro-COL1A1 protein expression in a dose-dependent manner”; the α-SMA protein expression entry is on record as “suppressed α-SMA protein expression in a dose-dependent manner”; the “concentration reducing α-SMA and pro-COL1A1 proteins below the basal level of non-stimulated cells” value is reported as ≥ 100 nM. Moreover, in data set [2] (0.01% cream), the “Body weight day 0” value was found to be 22.9 ± 0.8 g and the “Body weight day 7” value is 23.8 ± 0.5 g. In addition, in data set [2] (0.03% cream), the “Body weight day 0” value was 23.1 ± 0.6 g and the “Body weight day 7” value amounted to 23.4 ± 0.4 g. In data set [2] (0.1% cream), the “Body weight day 0” value was determined as 22.4 ± 0.4 g and the “Body weight day 7” value was 22.2 ± 0.5 g. In addition, in data set [2], the tolerability entry is on record as “well-tolerated”. The “body weight of the mice after one week of continuous topical application” value in data set [2] (topical cream) was “did not change”.

These data come from PMC5655428, “Discovery and pharmacological characterization of a new class of prolyl-tRNA synthetase inhibitor for anti-fibrosis therapy” (PLoS ONE, 2017).
